Measurements as given in patent US8486977B2, “1,2,3-triazole derivatives for use as stearoyl-CoA desaturase inhibitors” (GlaxoSmithKline LLC, priority 2007, dated 2013).

SMILES | melting point
COc1ccc(NC(=O)c2nnn(Cc3ccc(F)cc3)c2C)cc1OC | 119.7 °C
Cc1ccc(Cn2nnc(C(=O)Nc3ccc(OCCC(C)C)cc3)c2C)cc1 | 105 °C
Cc1c(C(=O)Nc2ccc(OCCC(C)C)cc2)nnn1Cc1ccc(C(C)C)cc1 | 114 °C (dec.)
COc1ccc(NC(=O)c2nnn(Cc3ccc(C)cc3)c2C)cc1OC | 156 °C (dec.)
COc1ccc(NC(=O)c2cn(Cc3ccc(F)cc3)nn2)cc1OC | 197.8 °C
COc1ccc(NC(=O)c2nnn(Cc3ccc(Br)cc3)c2C)cc1OC | 173 °C
Cc1c(C(=O)Nc2cccc(O)c2)nnn1Cc1ccc(Cl)c(Cl)c1 | 192.5 °C
Cc1c(C(=O)Nc2ccc(OCCC(C)C)cc2)nnn1Cc1ccc(F)cc1 | 114 °C
Cc1c(C(=O)Nc2ccc(OCCC(C)C)cc2)nnn1Cc1ccc(Br)cc1 | 137 °C
Cc1c(C(=O)Nc2ccc(OCCC(C)C)cc2)nnn1Cc1ccccc1 | 124 °C
Cc1c(C(=O)Nc2ccc(OCc3ccccc3)cc2)nnn1Cc1ccc(Br)cc1 [Example 3, 1-[(4-Bromophenyl)methyl]-5-methyl-N-{4-[(phenylmethyl)oxy]phenyl}-1H-1,2,3-triazole-4-carboxamide] | 168.7 °C
Cc1c(C(=O)Nc2ccc(OCc3ccccc3)cc2)nnn1Cc1ccc(F)cc1 [Example 4, 1-[(4-Fluorophenyl)methyl]-5-methyl-N-{4-[(phenylmethyl)oxy]phenyl}-1H-1,2,3-triazole-4-carboxamide] | 139.4 °C
Cc1c(C(=O)Nc2ccc(OCc3ccccc3)cc2)nnn1Cc1ccccc1 [Example 7, 5-Methyl-1-(phenylmethyl)-N-{4-[(phenylmethyl)oxy]phenyl}-1H-1,2,3-triazole-4-carboxamide] | 125 °C
Cc1c(C(=O)Nc2ccc(OCCC(C)C)cc2)nnn1Cc1ccc(-c2ccccc2Cl)cc1 [Example 9, 1-[(2’-Chloro-4-biphenylyl)methyl]-5-methyl-N-{4-[(3-methylbutyl)oxy]phenyl}-1H-1,2,3-triazole-4-carboxamide] | 125 °C (dec.)
Cc1c(C(=O)Nc2ccc(-c3ncco3)cc2)nnn1Cc1ccc(Cl)c(Cl)c1 [Example 15, 1-[(3,4-Dichlorophenyl)methyl]-5-methyl-N-[4-(1,3-oxazol-2-yl)phenyl]-1H-1,2,3-triazole-4-carboxamide] | 218 °C
CC(=O)Nc1ccc(NC(=O)c2nnn(Cc3ccc(Cl)c(Cl)c3)c2C)cc1 [Example 22, N-[4-(Acetylamino)phenyl]-1-[(3,4-dichlorophenyl)methyl]-5-methyl-1H-1,2,3-triazole-4-carboxamide] | 202.4 °C
Cc1c(C(=O)Nc2cccc(CO)c2)nnn1Cc1ccc(Cl)c(Cl)c1 [Example 24, 1-[(3,4-Dichlorophenyl)methyl]-N-[3-(hydroxymethyl)phenyl]-5-methyl-1H-1,2,3-triazole-4-carboxamide] | 185.2 °C
Cc1c(C(=O)Nc2ccc(O)c(CO)c2)nnn1Cc1ccc(Cl)c(Cl)c1 [Example 26, 1-[(3 4 Dichlorophenyl)methyl]-N-[4-hydroxy-3-(hydroxymethyl)phenyl]-5-methyl-1H-1,2,3-triazole-4-carboxamide] | 175.6 °C
CCOC(=O)Cc1ccc(NC(=O)c2nnn(Cc3ccc(Cl)c(Cl)c3)c2C)cc1 [Example 27, Ethyl {4-[({1-[(3,4-dichlorophenyl)methyl]-5-methyl-1H-1,2,3-triazol-4-yl}carbonyl)amino]phenyl}acetate] | 139 °C
Cc1c(C(=O)Nc2cccc(CO)c2)nnn1Cc1ccccc1 [Example 37, N-[3-(Hydroxymethyl)phenyl]-5-methyl-1-(phenylmethyl)-1H-1,2,3-triazole-4-carboxamide] | 105.8 °C
Cc1c(C(=O)Nc2ccc(CO)cc2)nnn1Cc1ccccc1 [Example 38, N-[4-(Hydroxymethyl)phenyl]-5-methyl-1-(phenylmethyl)-1H-1,2,3-triazole-4-carboxamide] | 149.1 °C
Cc1c(CO)cccc1NC(=O)c1nnn(Cc2ccccc2)c1C [Example 39, N-[3-(Hydroxymethyl)-2-methylphenyl]-5-methyl-1-(phenylmethyl)-1H-1,2,3-triazole-4-carboxamide] | 157 °C
Cc1c(C(=O)Nc2cccc(CO)c2)nnn1Cc1cc(Cl)cc(Cl)c1 [Example 40, 1-[(3,5-Dichlorophenyl)methyl]-N-[3-(hydroxymethyl)phenyl]-5-methyl-1H-1,2,3-triazole-4-carboxamide] | 159 °C
Cc1c(CO)cccc1NC(=O)c1nnn(Cc2cc(Cl)cc(Cl)c2)c1C [Example 42, 1-[(3,5-Dichlorophenyl)methyl]-N-[3-(hydroxymethyl)-2-methylphenyl]-5-methyl-1H-1,2,3-triazole-4-carboxamide] | 185 °C
CC(=O)NCc1cccc(NC(=O)c2nnn(Cc3ccc(Cl)c(Cl)c3)c2C)c1 [Example 43, N-{3-[(Acetylamino)methyl]phenyl}-1-[(3,4-dichlorophenyl)methyl]-5-methyl-1H-1,2,3-triazole-4-carboxamide] | 188.4 °C
Cc1c(C(=O)Nc2cccc(C(C)O)c2)nnn1Cc1ccc(Cl)c(Cl)c1 (stereo not shown) [Example 44, 1-[(3,4-Dichlorophenyl)methyl]-N-[3-(1-hydroxyethyl)phenyl]-5-methyl-1H-1,2,3-triazole-4-carboxamide] | 145 °C

Now from value to compound:

melting point | SMILES
170 °C | C=C(C)c1ccc(NC(=O)c2nnn(Cc3ccc(Cl)c(Cl)c3)c2C)c(OC)c1
212 °C | COC(=O)c1ccc(NC(=O)c2nnn(Cc3ccc(Cl)c(Cl)c3)c2C)c(OC)c1 [Example 17, Methyl 4-[({1-[(3,4-dichlorophenyl)methyl]-5-methyl-1H-1,2,3-triazol-4-yl}carbonyl)amino]-3-(methyloxy)benzoate]
203.9 °C | CNC(=O)c1cccc(NC(=O)c2nnn(Cc3ccc(Cl)c(Cl)c3)c2C)c1 [Example 18, 1-[(3,4-Dichlorophenyl)methyl]-5-methyl-N-{3-[(methylamino)carbonyl]phenyl}-1H-1,2,3-triazole-4-carboxamide]
183.7 °C | CNC(=O)c1ccc(NC(=O)c2nnn(Cc3ccc(Cl)c(Cl)c3)c2C)cc1 [Example 19, 1-[(3,4-Dichlorophenyl)methyl]-5-methyl-N-{4-[(methylamino)carbonyl]phenyl}-1H-1,2,3-triazole-4-carboxamide]
131.8 °C | CCOC(=O)c1cccc(NC(=O)c2nnn(Cc3ccc(Cl)c(Cl)c3)c2C)c1 [Example 20, Ethyl 3-[({1-[(3,4-dichlorophenyl)methyl]-5-methyl-1H-1,2,3-triazol-4-yl}carbonyl)amino]benzoate]
203.4 °C | CC(=O)Nc1cccc(NC(=O)c2nnn(Cc3ccc(Cl)c(Cl)c3)c2C)c1 [Example 21, N-[3-(Acetylamino)phenyl]-1-[(3,4-dichlorophenyl)methyl]-5-methyl-1H-1,2,3-triazole-4-carboxamide]
174.3 °C | Cc1c(CO)cccc1NC(=O)c1nnn(Cc2ccc(Cl)c(Cl)c2)c1C [Example 23, 1-[(3,4-Dichlorophenyl)methyl]-N-[3-(hydroxymethyl)-2-methylphenyl]-5-methyl-1H-1,2,3-triazole-4-carboxamide]
203 °C | COC(=O)c1ccc(OC)c(NC(=O)c2nnn(Cc3ccc(Cl)c(Cl)c3)c2C)c1 [Example 25, Methyl 3-[({1-[(3,4-dichlorophenyl)methyl]-5-methyl-1H-1,2,3-triazol-4-yl}carbonyl)amino]-4-(methyloxy)benzoate]
175.9 °C | COC(=O)c1ccc(NC(=O)c2nnn(Cc3ccc(Cl)c(Cl)c3)c2C)cc1OC [Example 28, Methyl 4-[({1-[(3,4-dichlorophenyl)methyl]-5-methyl-1H-1,2,3-triazol-4-yl}carbonyl)amino]-2-(methyloxy)benzoate]
180 °C | COC(=O)c1cc(NC(=O)c2nnn(Cc3ccc(Cl)c(Cl)c3)c2C)ccc1O [Example 29, Methyl 5-[({1-[(3,4-dichlorophenyl)methyl]-5-methyl-1H-1,2,3-triazol-4-yl}carbonyl)amino]-2-hydroxybenzoate]
116 °C | COC(=O)Cc1cccc(NC(=O)c2nnn(Cc3ccc(Cl)c(Cl)c3)c2C)c1 [Example 30, Methyl {3-[({1-[(3,4-dichlorophenyl)methyl]-5-methyl-1H-1,2,3-triazol-4-yl}carbonyl)amino]phenyl}acetate]
169.8 °C | COC(=O)c1cc(NC(=O)c2nnn(Cc3ccc(Cl)c(Cl)c3)c2C)ccc1F [Example 32, Methyl 5-[({1-[(3,4-dichlorophenyl)methyl]-5-methyl-1H-1,2,3-triazol-4-yl}carbonyl)amino]-2-fluorobenzoate]
218.2 °C | COc1ccc(C(N)=O)cc1NC(=O)c1nnn(Cc2ccc(Cl)c(Cl)c2)c1C [Example 33, N-[5-(Aminocarbonyl)-2-(methyloxy)phenyl]-1-[(3,4-dichlorophenyl)methyl]-5-methyl-1H-1,2,3-triazole-4-carboxamide]
206.4 °C | COC(=O)c1ccc(Cl)c(NC(=O)c2nnn(Cc3ccc(Cl)c(Cl)c3)c2C)c1 [Example 34, Methyl 4-chloro-3-[({1-[(3,4-dichlorophenyl)methyl]-5-methyl-1H-1,2,3-triazol-4-yl}carbonyl)amino]benzoate]
133 °C | COC(=O)Cc1ccc(OC)c(NC(=O)c2nnn(Cc3ccc(Cl)c(Cl)c3)c2C)c1 [Example 35, Methyl [3-[({1-[(3,4-dichlorophenyl)methyl]-5-methyl-1H-1,2,3-triazol-4-yl}carbonyl)amino]-4-(methyloxy)phenyl]acetate]
195.7 °C | COC(=O)c1ccc(F)c(NC(=O)c2nnn(Cc3ccc(Cl)c(Cl)c3)c2C)c1 [Example 36, Methyl 3-[({1-[(3,4-dichlorophenyl)methyl]-5-methyl-1H-1,2,3-triazol-4-yl}carbonyl)amino]-4-fluorobenzoate]
213 °C | COC(=O)c1ccc(OC)c(NC(=O)c2nnn(Cc3cc(Cl)cc(Cl)c3)c2C)c1 [Example 41, Methyl 3-[({1-[(3,5-dichlorophenyl)methyl]-5-methyl-1H-1,2,3-triazol-4-yl}carbonyl)amino]-4-(methyloxy)benzoate]
